Assay results reported in patent publication US20240400553A1, “AMINE BASED MATRIPTASE 2 INHIBITORS AND USES THEREOF” (Disc Medicine, Inc., priority 2023, published 2024).
Like-named read-outs stand apart in the source and are kept apart here. One block for each molecule: values may come before it.

Molecular target: T1, Human Recombinant Matriptase 2 (Homo sapiens, UniProt Q8IU80)
T1 construct: made in house
T1 sequence (Q8IU80 1-811): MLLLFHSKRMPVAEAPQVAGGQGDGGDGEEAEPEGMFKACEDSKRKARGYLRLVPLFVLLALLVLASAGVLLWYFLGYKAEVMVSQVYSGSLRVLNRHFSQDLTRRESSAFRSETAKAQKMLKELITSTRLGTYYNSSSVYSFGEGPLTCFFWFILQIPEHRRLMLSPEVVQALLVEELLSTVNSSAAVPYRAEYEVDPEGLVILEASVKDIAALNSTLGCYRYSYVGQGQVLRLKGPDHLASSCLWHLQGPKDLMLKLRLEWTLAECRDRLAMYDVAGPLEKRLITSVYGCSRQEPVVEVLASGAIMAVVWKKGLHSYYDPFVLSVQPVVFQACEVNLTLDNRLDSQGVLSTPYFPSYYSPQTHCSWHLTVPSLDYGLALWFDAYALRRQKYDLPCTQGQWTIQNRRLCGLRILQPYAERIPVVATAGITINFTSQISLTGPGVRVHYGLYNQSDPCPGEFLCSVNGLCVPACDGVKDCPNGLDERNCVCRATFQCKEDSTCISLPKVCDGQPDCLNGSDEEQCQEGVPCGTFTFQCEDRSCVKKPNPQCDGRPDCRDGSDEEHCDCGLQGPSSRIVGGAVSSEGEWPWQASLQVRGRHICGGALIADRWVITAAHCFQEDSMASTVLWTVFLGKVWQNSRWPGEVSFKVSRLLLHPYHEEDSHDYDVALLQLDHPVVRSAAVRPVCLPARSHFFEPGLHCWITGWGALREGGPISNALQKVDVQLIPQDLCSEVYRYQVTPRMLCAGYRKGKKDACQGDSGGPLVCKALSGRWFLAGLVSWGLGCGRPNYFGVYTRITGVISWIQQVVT
Assay: Matriptase 2 inhibition, fluorescence based assay (Method I)
Type: biochemical
Outline: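 Fluorogenic readout (Ex 360/Em 480 nm) taken 60 min after adding 62 μM Boc-Gln-Ala-Arg-AMC, following 30-min enzyme–compound preincubation at 25 °C. Conditions: 3.5 nM in-house enzyme, pH 7.5 Tris/NaCl/gelatin buffer, 1% DMSO; percent inhibition versus concentration fitted by variable-slope sigmoidal regression.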

[1] = Table A, Ki of Matriptase-2, read-out: Mat-2 Ki
[2] = Table B, Human Recombinant Matriptase 2, 3.5 nM enzyme, 62 μM substrate, 30 mins preincubation, read-out: Mean Ki
[3] = Table A, Ki of Matriptase-2 given as class symbols, read-out: Mat-2 Ki

Ki [1]: 0.5 to 3 µM
SMILES: NCc1ccc2cc(C(=O)O)n(Cc3cc(NS(=O)(=O)C4(c5ccccc5)CC4)cc4ccccc34)c2n1 [Compound 113, 6-(aminomethyl)-1-{[3-(1-phenylcyclopropane-sulfonamido)naphthalen-1-yl]methyl}-1H-pyr-rolo[2,3-b]pyridine-2-carboxylic acid]

Ki [2]: 0.1 to 0.5 µM
SMILES: CN1CCC(CCOC(=O)c2cc3ccc(CN)nc3n2Cc2cc(NS(=O)(=O)Cc3ccccc3)cc3c2CCCC3)CC1=O (stereo not drawn) [Compound 2.1]

Ki [3]: 0.5 to 3 µM
SMILES: C[C@@H](CN1CCCCC1)OC(=O)Nc1cc(Cn2c(C(=O)O)cc3ccc(CN)nc32)c2ccccc2c1 (racemic) [Compound 339, rac-6-(aminomethyl)-1-({3-[({[(2R)-1-(piperidin-1-yl)propan-2-yl]oxy}-carbonyl)amino]naph-thalen-1-yl}methyl)-1H-pyrrolo[2,3-b]pyridine-2-carboxylic acid]

Ki [1]: ≤ 0.1 µM
SMILES: NCc1ccc2cc(C(=O)OCCN3CCNCC3)n(Cc3cc(NS(=O)(=O)Cc4ccsc4)cc4ccccc34)c2n1 [Compound 156, 2-(piperazin-1-yl)ethyl 6-(aminomethyl)-1-({3-[(thiophen-3-yl)methane-sulfonamidoJnaphthalen-1-yl}methyl)-1H-pyr-rolo[2,3-b]pyridine-2-carboxylate]

Ki [3]: 0.1 to 0.5 µM
SMILES: COCCN1CCN(C(=O)Nc2cc(Cn3c(C(=O)O)cc4ccc(CN)nc43)c3ccccc3c2)CC1 [Compound 288, 6-(aminomethyl)-1-((3-(4-(2-methoxyethyl)piperazine-1-carboxamido)naphthalen-1-yl)methyl)-1H-pyrrolo[2,3-b]pyridine-2-carboxylic acid]

Ki [1]: ≤ 0.1 µM
SMILES: NCc1ccc2cc(C(=O)OC[C@H]3COCCN3)n(Cc3cc(NS(=O)(=O)Cc4ccsc4)cc4ccccc34)c2n1 [Compound 158, [(3R)-morpholin-3-yl]-methyl 6-(aminometh-yl)-1-({3-[(thiophen-3-yl)methanesulfonamido]-naphthalen-1-yl}meth-yl)-1H-pyrrolo[2,3-b]-pyridine-2-carboxylate]

Ki [1]: ≤ 0.1 µM
SMILES: NCc1ccc2cc(C(=O)OCCCN3CCOCC3)n(Cc3cc(NS(=O)(=O)Cc4ccsc4)cc4ccccc34)c2n1 [Compound 160, 3-(morpholin-4-yl)prop-yl 6-(aminomethyl)-1-({3-[(thiophen-3-yl)meth-anesulfonamido]naph-thalen-1-yl}methyl)-1H-pyrrolo[2,3-b]pyridine-2-carboxylate]

Ki [2]: ≤ 0.1 µM
SMILES: CN1CCC(COC(=O)c2cc3ccc(CN)nc3n2Cc2cc(NS(=O)(=O)Cc3ccsc3)cc3c2CCCC3)CC1=O (stereo not drawn) [Compound 2.22]

Ki [1]: 0.1 to 0.5 µM
SMILES: Cc1oc(=O)oc1COC(=O)c1cc2ccc(CN)nc2n1Cc1cc(NS(=O)(=O)Cc2ccccc2)cc2ccccc12 [Compound 88, (5-methyl-2-oxo-2H-1,3-dioxol-4-yl)methyl 6-(aminomethyl)-1-{[3-(phenylmethanesulfon-amido)naphthalen-1-yl]-methyl}-1H-pyrrolo[2,3-b]pyridine-2-carboxylate]

Ki [3]: 0.5 to 3 µM
SMILES: CN1CCC(COC(=O)c2cc3ccc(CN)nc3n2Cc2cc(NS(=O)(=O)CC[C@H]3CCCN3)cc3ccccc23)CC1 [Compound 281, (1-methylpiperidin-4-yl)methyl 6-(aminometh-yl)-1-[(3-{2-[(2R)-pyr-rolidin-2-yl]ethanesul-fonamido}naphthalen-1-yl)methyl]-1H-pyrrolo-[2,3-b]pyridine-2-car-boxylate]

Ki [2]: ≤ 0.1 µM
SMILES: CN1CCC(C(OC(=O)c2cc3ccc(CN)nc3n2Cc2cc(NS(=O)(=O)Cc3ccccc3)cc3ccccc23)C2CC2)CC1 (stereo not drawn) [Compound 2.33]

Ki [1]: ≤ 0.1 µM
SMILES: CN(C)CCNC(=O)c1cc2ccc(CN)nc2n1Cc1cc(NS(=O)(=O)Cc2ccccc2)cc2ccccc12 [Compound 71, 6-(aminomethyl)-N-[2-(dimethylamino)ethyl]-1-{[3-(phenylmethane-sulfonamido)naphthalen-1-yl]methyl}-1H-pyr-rolo[2,3-b]pyridine-2-carboxamide]

Ki [3]: 0.5 to 3 µM
SMILES: CN1CCC(COC(=O)c2cc3ccc(CN)nc3n2Cc2cc(NS(=O)(=O)CC34CC(F)(C3)C4)cc3ccccc23)CC1 [Compound 248, (1-methylpiperidin-4-yl)-methyl 6-(aminomethyl)-1-{[3-({3-fluorobicyclo-[1.1.1]pentan-1-yl}-methanesulfonamido)-naphthalen-1-yl]methyl}-1H-pyrrolo[2,3-b]pyr-idine-2-carboxylate]

Ki [3]: 0.5 to 3 µM
SMILES: COCCN1CCC(CS(=O)(=O)Nc2cc(Cn3c(C(=O)OCC4CCN(C)CC4)cc4ccc(CN)nc43)c3ccccc3c2)CC1 [Compound 253]

Ki [1]: ≤ 0.1 µM
SMILES: CC(C)N1CCC(CNC(=O)c2cc3ccc(CN)nc3n2Cc2cc(NS(=O)(=O)Cc3ccccc3)cc3ccccc23)CC1 [Compound 14, 6-(aminomethyl)-1-{[3-(phenylmethanesulfon-amido)naphthalen-1-yl]-methyl}-N-{[1-(propan-2-yl)piperidin-4-yl]-methyl}-1H-pyrrolo-[2,3-b]pyridine-2-car-boxamide]

Ki [1]: ≤ 0.1 µM
SMILES: CN(C)CCCCOC(=O)c1cc2ccc(CN)nc2n1Cc1cc(NS(=O)(=O)Cc2ccccc2)cc2ccccc12 [Compound 25, 4-(dimethylamino)butyl 6-(aminomethyl)-1-{[3-(phenylmethanesulfon-amido)naphthalen-1-yl]-methyl}-1H-pyrrolo[2,3-b]pyridine-2-carboxylate]

Ki [1]: 0.5 to 3 µM
SMILES: CC(C)COC(=O)c1cc2ccc(CN)nc2n1Cc1cc(NS(=O)(=O)Cc2ccccc2)cc2ccccc12 [Compound 121, 2-methylpropyl 6-(aminomethyl)-1-{[3-(phenylmethanesulfon-amido)naphthalen-1-yl]-methyl}-1H-pyrrolo[2,3-b]pyridine-2-carboxylate]

Ki [3]: 0.5 to 3 µM
SMILES: NCc1ccc2cc(C(=O)O)n(Cc3cc(NS(=O)(=O)N4CCC(C(F)(F)F)CC4)cc4ccccc34)c2c1 [Compound 393, 6-(aminomethyl)-1-{[3-({[4-(trifluoromethyl)-piperidin-1-yl]sulfonyl}-amino)naphthalen-1-yl]-methyl}-1H-indole-2-carboxylic acid]

Ki [1]: 0.1 to 0.5 µM
SMILES: NCc1ccc2cc(C(=O)OCCF)n(Cc3cc(NS(=O)(=O)Cc4ccccc4)cc4ccccc34)c2n1 [Compound 105, 2-fluoroethyl 6-(amino-methyl)-1-{[3-(phenyl-methanesulfonamido)-naphthalen-1-yl]methyl}-1H-pyrrolo[2,3-b]pyr-idine-2-carboxylate]

Ki [2]: ≤ 0.1 µM
SMILES: CB1C=Cc2c(Cn3c(C(=O)OCC4CCN(C)CC4)cc4ccc(CN)nc43)cc(NS(=O)(=O)Cc3ccccc3)cc2N1 [Compound 2.25]

Ki [2]: ≤ 0.1 µM
SMILES: Cc1cccc(C)c1CS(=O)(=O)Nc1cc2c(c(Cn3c(C(=O)OCC4CCN(C)CC4)cc4ccc(CN)nc43)c1)CCCC2 [Compound 2.43]

Ki [1]: ≤ 0.1 µM
SMILES: CCN1CCC(COC(=O)c2cc3ccc(CN)nc3n2Cc2cc(NS(=O)(=O)Cc3ccccc3)cc3ccccc23)CC1 [Compound 13, (1-ethylpiperidin-4-yl)-methyl 6-(aminomethyl)-1-{[3-(phenylmethane-sulfonamido)naphthalen-1-yl]methyl}-1H-pyr-rolo[2,3-b]pyridine-2-carboxylate]

Ki [1]: ≤ 0.1 µM
SMILES: CC(C)N(C)CCOC(=O)c1cc2ccc(CN)nc2n1Cc1cc(NS(=O)(=O)Cc2ccccc2)cc2ccccc12 [Compound 52, 2-[methyl(propan-2-yl)-amino]ethyl 6-(amino-methyl)-1-{[3-(phenyl-methanesulfonamido)-naphthalen-1-yl]methyl}-1H-pyrrolo[2,3-b]pyr-idine-2-carboxylate]

Ki [3]: 0.1 to 0.5 µM
SMILES: NCc1ccc2cc(C(=O)O)n(Cc3cc(NS(=O)(=O)C[C@H]4CCCO4)cc4ccccc34)c2n1 (racemic) [Compound 257, rac-6-(aminomethyl)-1-[(3-{[(2R)-oxolan-2-yl]methanesulfonamido}-naphthalen-1-yl)methyl]-1H-pyrrolo[2,3-b]pyr-idine-2-carboxylic acid]

Ki [3]: 0.1 to 0.5 µM
SMILES: COCCN1CCC(CS(=O)(=O)Nc2cc(Cn3c(C(=O)O)cc4ccc(CN)cc43)c3ccccc3c2)CC1 [Compound 390, 6-(aminomethyl)-1-[(3-{[1-(2-methoxyethyl)-piperidin-4-yl]methane-sulfonamido}naphthalen-1-yl)methyl]-1H-indole-2-carboxylic acid]

Ki [2]: 0.1 to 0.5 µM
SMILES: Cc1cccc(C)c1CS(=O)(=O)Nc1cc2c(c(Cn3c(C(=O)OCc4cncn4C(C)(C)C)cc4ccc(CN)nc43)c1)CCCC2 [Compound 2.42]

Ki [1]: 0.5 to 3 µM
SMILES: COC(=O)c1cc2ccc(CN)nc2n1Cc1cc(NS(=O)(=O)Cc2ccccc2)cc2ccccc12 [Compound 116, methyl 6-(aminomethyl)-1-{[3-(phenylmethane-sulfonamido)naphthalen-1-yl]methyl}-1H-pyrrolo-[2,3-b]pyridine-2-car-boxylate]
